Values after ≈ are worked out from the molar mass of the structure shown. Where two headings read alike, the source gives them in different places.
What was measured:
Type in all cases: cell-based
[1] = test system: Staphylococcus aureus MRSA; assay: MIC in Agar Dilution Test or Micro Dilution Test (NCCLS M7-A4)
Source text: (§1) For example, the active compounds of the present invention show antimicrobial, e.g. antibacterial activity against gram negative bacterias, such as Escherichia coli; and against gram positive bacteria, such as Staphylococcus aureus, Streptococcus pyogenes, Streptococcus pneumonlae, Mycoplasms, Chlamydia and obligatory anaerobes, e.g. Bacteroides fragilis; in vitro in the Agar Dilution Test or Microdilution Test according to National Commitee for Clinical Laboratory Standards (NCCLS) 1997, Document M7-A4 Vol.17, No. 2: “Methods for dilution Antimicrobial Susceptibility Tests for Bacteria that Grow Aerobically—Fourth Edition, Approved Standard”; and e.g. in vivo in systemic infections in mice.
(§2) The active compounds of the invention show an surprising overall activity spectrum. For example, it has been determined that the active compounds of the present invention show surprising activity in vitro against Enterococcus faecium, including vancomycin-resistant strains; against Staphylococcus aureus including methicillin sensitive (MSSA) and methicdllin-resistant (MRSA) strains; and against Streptococcus pneumoniae including penicillin-resistant strains; e.g. in the Agar Dilution Test or in the Micro Dilution Test in Mueller-Hinton agar or Mueller-Hinton broth with or without supplements according to the approved standard reference methods of the National Committee for Clinical Laboratory Standards (NCCLS), Document M7-A4 for aerobic bacteria.

[2] = test system: Staphylococcus aureus MSSA; assay: as above; details: examples tested in the form of a hydrochloride
Source text: as §1, §2

[3] = test system: penicillin-resistant Streptococcus pneumoniae; assay: as above
Source text: as §1, §2

[4] = test system: Enterococcus faecalis strain ATCC 29212; assay: MIC in Agar Dilution Test or Microdilution Test; details: examples tested in the form of an hydrochloride
Source text: as §1

## C=C[C@]1(C)C[C@@H](OC(=O)CSc2cccc(NC(=O)[C@H]3CCCCN3)c2)[C@]2(C)[C@H](C)CC[C@]3(CCC(=O)[C@H]32)[C@@H](C)[C@@H]1O [Example 1]
[1]
  MIC: ≤ 0.0125 µg/mL
[2]
  MIC: ca. 0.025 μg/ml

## C=C[C@]1(C)C[C@@H](OC(=O)CSc2cccc(N)c2)[C@]2(C)[C@H](C)CC[C@]3(CCC(=O)[C@H]32)[C@@H](C)[C@@H]1O [Example 52, 14-O-[(3-Amino-phenylsulfanyl)acetyl]mutilin]
[2]
  MIC: ca. 0.025 μg/ml

## CC[C@H]1OC(=O)[C@H](C)[C@@H](O[C@H]2C[C@@](C)(OC)[C@@H](O)[C@H](C)O2)[C@H](C)[C@@H](O[C@@H]2O[C@H](C)C[C@H](N(C)C)[C@H]2O)[C@](C)(O)C[C@@H](C)CN(C)[C@H](C)[C@@H](O)[C@]1(C)O [azithromycin]
[1]; read-out: MIC
  MIC: > 25.6 µg/mL
[2]; read-out: MIC
  MIC: ~1.6 µg/mL (≈ 2.14 µM)
[3]
  MIC: > 2.56 µg/mL

## CC[C@H]1OC(=O)[C@H](C)[C@@H](O[C@H]2C[C@@](C)(OC)[C@@H](O)[C@H](C)O2)[C@H](C)[C@@H](O[C@@H]2O[C@H](C)C[C@H](N(C)C)[C@H]2O)[C@](C)(O)C[C@@H](C)C(=O)[C@H](C)[C@@H](O)[C@]1(C)O [erythromycin A]
[4]
  MIC: ca. 1.6 μg/ml

— patent US7534814B2, “Mutilin derivatives and their use as antibacterials” (Nabriva Therapeutics AG, priority 1999, dated 2009)
